Laboratory results published in patent US12195427B2, “MASP-2 inhibitors and methods of use” (priority 2018, dated 2025).

Target: MASP-2 CCP2-SP (Homo sapiens (Human), UniProt O00187)
Assay: MASP-2 co-crystallization, X-ray crystallography and structure analysis (H-bonds, van der Waals contacts);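 on Ligand-pharmacophore element distance, pharmacophore element C2: distance from averaged pharmacophore element to bound ligand; missing value means element absent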;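 on Ligand-pharmacophore element distance, pharmacophore element C3: distance from averaged pharmacophore element to bound ligand; missing value means element absent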;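 on Ligand-pharmacophore element distance, pharmacophore element C4: distance from averaged pharmacophore element to bound ligand; missing value means element absent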;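 on Ligand-pharmacophore element distance, pharmacophore element C5: distance from averaged pharmacophore element to bound ligand; missing value means element absent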
Parameters: van der Waals contact distance, MASP-2 HIS 483 atom CD2 / van der Waals contact distance, MASP-2 HIS 483 atom NE2 / van der Waals contact distance, SER 654 C to compound atom / van der Waals contact distance, SER 654 O to compound atom / van der Waals contact distance, TRP 655 C to compound atom / van der Waals contact distance, MASP-2 GLY 528 atom CA / van der Waals contact distance TRP 655 atom CZ3 / van der Waals contact distance TRP 655 atom N / van der Waals contact distance TRP 655 atom CE3 / van der Waals contact distance GLY 656 atom C / van der Waals contact distance GLY 656 atom CA / van der Waals contact distance GLY 656 atom O / van der Waals contact distance, MASP-2 TYR 607 atom CD1 / van der Waals contact distance, MASP-2 PRO 606 atom O / d(C3,CA1) / d(CA1,N1)2 / d(H4,O1) / d(H4,O2) / d(O1,O2) / d(CA1,O2) / d(CA6,O1) / d(CA6,O2) / d(CA1,C5) / d(O2,H3) / d(N2,C2) / d(CA5,N2) / d(N2,C4) / d(N2,C6) / d(N2,CA3) / d(N2,O3) / d(O4,H2): unit not given beside the values
Conditions: for Ligand-pharmacophore element distance, pharmacophore element C2 / Ligand-pharmacophore element distance, pharmacophore element C3 / Ligand-pharmacophore element distance, pharmacophore element C4 / Ligand-pharmacophore element distance, pharmacophore element C5 / Ligand-pharmacophore element distance, pharmacophore element C6 / Ligand-pharmacophore element distance, pharmacophore element C7 / Ligand-pharmacophore element distance, pharmacophore element CA1 / Ligand-pharmacophore element distance, pharmacophore element CA2 / Ligand-pharmacophore element distance, pharmacophore element CA3 / Ligand-pharmacophore element distance, pharmacophore element CA4 / Ligand-pharmacophore element distance, pharmacophore element CA5 / Ligand-pharmacophore element distance, pharmacophore element CA6: Table A4-1; for d(N2,C2) / d(N2,CA2) / d(O2,H3) / d(O2,N2): Table A5-2 pharmacophore distance, S3/S4 region; for a(O1, O2, H3) / a(O1, O2, N2) / a(O2, N2, C2) / a(O2, N2, CA2): Table A6-2 pharmacophore angle
How it was run: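 Inhibitor complexes were obtained by soaking crystals of E. coli-expressed human MASP-2 CCP2-SP constructs, then flash-cooling in liquid nitrogen. Structures solved by molecular replacement (1Q3X search model) from synchrotron diffraction; where several poses existed, only one was analyzed, and nonbonded contacts listed can include H-bonds.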

[1] = Table A5-1 pharmacophore: distance between elements, S2/S1 region
[2] = Table A7-1, between pharmacophore elements of the bound compound
[3] = Table A7-2, between pharmacophore elements of the bound compound
[4] = Table A8-6, nearest protein atom in cell to the left

Sequence of MASP-2 CCP2-SP (O00187 445-686): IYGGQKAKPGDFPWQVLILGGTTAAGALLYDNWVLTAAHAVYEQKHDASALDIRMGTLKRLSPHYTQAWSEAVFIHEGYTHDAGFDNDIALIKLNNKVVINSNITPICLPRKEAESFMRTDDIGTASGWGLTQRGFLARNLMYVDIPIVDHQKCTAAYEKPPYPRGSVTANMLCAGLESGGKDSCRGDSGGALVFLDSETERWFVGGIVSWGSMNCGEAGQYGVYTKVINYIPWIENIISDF
Sequence of MASP-2 CCP2-SP (O00187 364-432 partner): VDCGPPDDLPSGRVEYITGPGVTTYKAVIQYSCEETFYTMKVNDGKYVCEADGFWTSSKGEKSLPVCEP

## C[C@H](NC(=O)[C@H]1C[C@@H](c2ccccc2)CCN1)C(=O)NCc1cc(Cl)ccc1O.Cl [1078_10]
  Ligand-pharmacophore element distance, pharmacophore element C2: 0.49
  Ligand-pharmacophore element distance, pharmacophore element C3: 0
  Ligand-pharmacophore element distance, pharmacophore element C4: 0
  Ligand-pharmacophore element distance, pharmacophore element C5: 0.3
  Ligand-pharmacophore element distance, pharmacophore element C6: 0
  Ligand-pharmacophore element distance, pharmacophore element C7: 0
  Ligand-pharmacophore element distance, pharmacophore element CA1: 1.34
  Ligand-pharmacophore element distance, pharmacophore element CA2: 0.49
  Ligand-pharmacophore element distance, pharmacophore element CA3: 0
  Ligand-pharmacophore element distance, pharmacophore element CA4: 0
  Ligand-pharmacophore element distance, pharmacophore element CA5: 0
  Ligand-pharmacophore element distance, pharmacophore element CA6: 0
  d(N2,C2): 1.48
  d(N2,CA2): 5.72
  d(O2,H3): 1.97
  d(O2,N2): 2.74
  a(O1, O2, H3): 146.00
  a(O1, O2, N2): 152.80
  a(O2, N2, C2): 131.78
  a(O2, N2, CA2): 156.19
[1]
  d(CA1,C5): 3.12
  d(CA1,O1): 4.35
  d(CA1,O2): 4.37
  d(CA1,O4): 2.76
  d(H4,O1): 3.11
  d(H4,O2): 3.46
  d(O1,O2): 2.72
  d(O4,H2): 0.97
Table A6-1 pharmacophore angle
  a(C5, CA1, O1): 160.63
  a(CA1, O1, O2): 108.49
  a(CA1, O4, H2): 127.01
  a(O1, CA1, O4): 71.55
  a(O1, O2, H4): 131.53
[2]
  Pharmacophore torsion angle a(C5, CA1, O1, H4): −9.97
  Pharmacophore torsion angle a(H4, O1, O2, H3): −152.67
  Pharmacophore torsion angle a(H4, O1, O2, N2): −164.78
  Pharmacophore torsion angle a(O1, H4, O2, CA1): −84.11
  Pharmacophore torsion angle a(O1, O2, N2, C2): 123.40
[3]
  Pharmacophore torsion angle a(O1, O2, N2, CA2): 136.18
Table A8-6, 6th residue column, nearest protein atom in cell to the left
  Pharmacophore protein distance to MET_658 (first MET_658 column): 3.04
Table A8-6, 9th residue column, nearest protein atom in cell to the left
  Pharmacophore protein distance to MET_658 (second MET_658 column): 3.81
[4]
  Pharmacophore protein distance to GLY_528: 3.40
  Pharmacophore protein distance to PHE_529: 3.08
  Pharmacophore protein distance to PRO_608: 3.66
  Pharmacophore protein distance to SER_611: 2.78
Table A8-6, pharmacophore elements C6, CA3, O3, H1, nearest protein atom in cell to the left
  Pharmacophore protein distance to TRP_655: 3.89

## Cc1nc(N)ccc1CNC(=O)C(C)NC(=O)C1CC(c2cccc3ccccc23)CCN1.Cl.Cl (stereo not shown) [1297_3]
  Ligand-pharmacophore element distance, pharmacophore element C2: 0.28
  Ligand-pharmacophore element distance, pharmacophore element C3: 0.23
  Ligand-pharmacophore element distance, pharmacophore element C4: 0
  Ligand-pharmacophore element distance, pharmacophore element C5: 0
  Ligand-pharmacophore element distance, pharmacophore element C6: 0
  Ligand-pharmacophore element distance, pharmacophore element C7: 0
  Ligand-pharmacophore element distance, pharmacophore element CA1: 0.33
  Ligand-pharmacophore element distance, pharmacophore element CA2: 0.22
  Ligand-pharmacophore element distance, pharmacophore element CA3: 0
  Ligand-pharmacophore element distance, pharmacophore element CA4: 0.94
  Ligand-pharmacophore element distance, pharmacophore element CA5: 0
  Ligand-pharmacophore element distance, pharmacophore element CA6: 0
  d(N2,C2): 1.43
  d(N2,CA2): 5.64
  d(O2,H3): 4.22
  d(O2,N2): 2.72
  a(O1, O2, H3): 143.41
  a(O1, O2, N2): 144.44
  a(O2, N2, C2): 132.31
  a(O2, N2, CA2): 156.50
[1]
  d(C3,CA1): 2.85
  d(CA1,N1)2: 1.39
  d(CA1,O1): 4.43
  d(CA1,O2): 3.92
  d(H4,O1): 4.37
  d(H4,O2): 3.85
  d(O1,O2): 3.55
Table A6-1 pharmacophore angle
  a(C3, CA1, O1): 150.32
  a(CA1, O1, O2): 107.42
  a(O1, O2, H4): 129.38
Table A6-1 pharmacophore angle, Methyl-amino-pyridine compounds
  a(N1, CA1, O1) b): 174.78
[2]
  Pharmacophore torsion angle a(C3, CA1, O1, H4): 28.95
  Pharmacophore torsion angle a(H4, O1, O2, H3): 50.29
  Pharmacophore torsion angle a(H4, O1, O2, N2): 141.16
  Pharmacophore torsion angle a(N1, CA1, O1, H4): 22.83
  Pharmacophore torsion angle a(O1, H4, O2, CA1): −86.03
  Pharmacophore torsion angle a(O1, O2, N2, C2): 114.36
[3]
  Pharmacophore torsion angle a(O1, O2, N2, CA2): 129.56
  Pharmacophore torsion angle a(O1, O2, N2, CA4): 108.64
